Test results published in patent publication US20160367623A1, “AGONISTS OF GUANYLATE CYCLASE USEFUL FOR THE TREATMENT OF GASTROINTESTINAL DISORDERS, INFLAMMATION, CANCER AND OTHER DISORDERS” (priority 2015, published 2016).
Bridge positions count the residues as written; N and C are the ends. Ends that are not written are not given here.

How the values were obtained:
[1] = tested on: patients with chronic idiopathic constipation (CIC); test: Second phase 3 CIC trial: patient disposition, reasons for discontinuation; details: All Randomized
[2] = tested on: patients with chronic idiopathic constipation (CIC); test: First phase 3 CIC trial: durable overall CSBM responders (primary endpoint); type: in vivo, human; design: Odds Ratio (adjusted), durable overall CSBM responders: reference not given here; details: for Non-Responders, % / Durable Overall CSBM Responders, %: ITT; for Durable Overall CSBM Responders, %: MRA; for proportion of durable overall responders: 12-week treatment, intention-to-treat population, placebo 10.2%; for Odds Ratio (adjusted), durable overall CSBM responders / Difference in Proportions (adjusted), responders minus placebo: adjusted for gender; for Odds Ratio (adjusted), durable overall CSBM responders: CMH
Source text: Both trials include a two-week pre-treatment baseline period, a 12-week treatment period, and a two-week post-treatment period. The phase 3 CIC program was designed to support regulatory submission in the U. S.
The primary endpoint for both trials is the proportion of durable overall responders (%), which is the current regulatory endpoint required for U.S. approval in CIC. The FDA has defined a durable overall responder as a patient who fulfills both ≧3 complete spontaneous bowel movements (CSBMs) per week plus an increase of ≧1 CSBM from baseline in the same week, for 9 out of the 12 treatment weeks. In addition, the same patient must be an overall responder for at least 3 of the last 4 treatment weeks in order to be considered a durable overall responder.
Patients were selected using Rome 3 criteria modified for CIC and had (1) fewer than 3 defecations per week, (2) loose stools occurring rarely without laxatives, (3) inadequate criteria for irritable bowel syndrome with constipation (IBS-C), and (4) at least two of the following applied to at least 25% of defecations: (a) straining during evacuation, (b) lumpy or hard stools, (c) sensation of anorectal obstruction or blockage. Rome 3 requires patients to fulfill the criteria for the last 3 months with symptom onset at least 6 months prior to diagnosis.

[3] = tested on: patients with chronic idiopathic constipation (CIC); test: First phase 3 CIC trial: treatment emergent adverse events, safety

Asn^1-Asp^2-Glu^3-Cys^4-Glu^5-Leu^6-Cys^7-Val^8-Asn^9-Val^10-Ala^11-Cys^12-Thr^13-Gly^14-Cys^15-Leu^16 (NDECELCVNVACTGCL; disulfide 4-12, 7-15) [Plecanatide]
Discontinuation before Week 12 (EOT), primary reason Insufficient Therapeutic Effect, (%) ([1]; 3 mg (N = 470)): (0.6) % | Discontinuation before Week 12 (EOT), primary reason Insufficient Therapeutic Effect, (%) ([1]; 6 mg (N = 471)): (0.2) % | Non-Responders, % ([2]; 3 mg (N = 453)): 79.0% | Durable Overall CSBM Responders, % ([2]; 3 mg (N = 453)): 21.0% | proportion of durable overall responders ([2]; 3.0 mg once-a-day): 21.0% | Odds Ratio (adjusted), durable overall CSBM responders ([2]; 3 mg vs placebo): 0.429 | Difference in Proportions (adjusted), responders minus placebo ([2]; 3 mg): 0.107 | Non-Responders, % ([2]; 6 mg (N = 441)): 80.5% | Durable Overall CSBM Responders, % ([2]; 6 mg (N = 441)): 19.5% | proportion of durable overall responders ([2]; 6.0 mg once-a-day): 19.5% | Odds Ratio (adjusted), durable overall CSBM responders ([2]; 6 mg vs placebo): 0.469 | Difference in Proportions (adjusted), responders minus placebo ([2]; 6 mg): 0.094 | Non-Responders, % ([2]; Active Combined (N = 894)): 79.8% | Durable Overall CSBM Responders, % ([2]; Active Combined (N = 894)): 20.2% | Serious TEAE Infections and infestations, Reasonable Possibility: E events ([3]; 3 mg (N = 474)): 0 | Serious TEAE Infections and infestations, Reasonable Possibility: N patients ([3]; 3 mg (N = 474)): 0 | Serious TEAE Infections and infestations: E events ([3]; 3 mg (N = 474)): 0 | Serious TEAE Infections and infestations: N patients ([3]; 3 mg (N = 474)): 0 | Serious TEAE Infections and infestations, Reasonable Possibility: E events ([3]; 6 mg (N = 457)): 0 | Serious TEAE Infections and infestations, Reasonable Possibility: N patients ([3]; 6 mg (N = 457)): 0 | Serious TEAE Infections and infestations: % patients ([3]; 6 mg (N = 457)): (0.4) % | Serious TEAE Infections and infestations: E events ([3]; 6 mg (N = 457)): 2 | Serious TEAE Infections and infestations: N patients ([3]; 6 mg (N = 457)): 2
